# Measurements published in patent publication US6737383B1, “Herbicidal oxadiazolidines” (priority 1999, dated 2004).
# Assays:
# sugar beet = assay: Test B pre/postemergence sugar beet; assay type: in vivo, Beta vulgaris
# How it was run: (§1)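 Response is a visual 0-to-10 score relative to untreated plants, where 0 means no effect and 10 means complete control, taken twelve to sixteen days after application. Treatments went onto soil at planting and onto foliage of 1- to 4-leaf plants, using a surfactant-containing non-phytotoxic solvent.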
# rape = assay: Test B pre/postemergence rape; assay type: in vivo, Brassica napus
# How it was run: as §1
# blackgrass = assay: Test B pre/postemergence blackgrass; assay type: in vivo, Alopecurus myosuroides
# How it was run: as §1
# smallflower flatsedge = assay: Test B flood test smallflower flatsedge; assay type: in vivo, Cyperus difformis
# How it was run: (§2)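 Read-out is a visual response score from 0 (no effect) to 10 (complete control), assigned by comparison with untreated controls. Treatment was applied at the 2-leaf stage, and plants stayed in the greenhouse for twelve to sixteen days before scoring.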
# purple nutsedge = assay: Test B pre/postemergence purple nutsedge; assay type: in vivo, Cyperus rotundus
# How it was run: as §1
# cocklebur = assay: Test B pre/postemergence cocklebur; assay type: in vivo, Xanthium strumarium
# How it was run: as §1
# soybean = assay: Test B pre/postemergence soybean; assay type: in vivo, Glycine max
# How it was run: as §1
# duck salad = assay: Test B flood test duck salad; assay type: in vivo, Heteranthera limosa
# How it was run: as §2
# corn = assay: Test B pre/postemergence corn; assay type: in vivo, Zea mays
# How it was run: as §1
# velvetleaf = assay: Test B pre/postemergence velvetleaf; assay type: in vivo, Abutilon theophrasti
# How it was run: as §1
# wild oat = assay: Test B pre/postemergence wild oat; assay type: in vivo, Avena fatua
# How it was run: as §1
# pigweed = assay: Test B pre/postemergence pigweed; assay type: in vivo, Amaranthus retroflexus
# How it was run: as §1
# crabgrass = assay: Test B pre/postemergence crabgrass; assay type: in vivo, Digitaria sanguinalis
# How it was run: as §1
# bamyardgrass = assay: Test B flood test barnyardgrass; assay type: in vivo, Echinochloa crus-galli
# How it was run: as §2
# bedstraw = assay: Test B pre/postemergence bedstraw; assay type: in vivo, Galium aparine; details: Postemergence, Rate 62 g/ha; scale 0 to 10, 0 is no effect, 10 is complete control
# How it was run: as §1
# wheat = assay: Test B pre/postemergence wheat; assay type: in vivo, Triticum aestivum
# How it was run: as §1
# surinam grass = assay: Test B pre/postemergence surinam grass; assay type: in vivo, Brachiaria decumbens
# How it was run: as §1
# rice = assay: Test B flood test rice; assay type: in vivo, Oryza sativa
# How it was run: as §2
# giant foxtail = assay: Test B pre/postemergence giant foxtail; assay type: in vivo, Setaria faberii
# How it was run: as §1
# morningglory = assay: Test B pre/postemergence morningglory; assay type: in vivo, Ipomoea hederacea
# How it was run: as §1
# [1] = Postemergence, Rate 62 g/ha, scale 0 to 10, 0 is no effect, 10 is complete control
# [2] = Postemergence, Rate 125 g/ha, scale of 0 to 10 where 0 is no effect and 10 is complete control
# [3] = Preemergence, Rate 62 g/ha, scale of 0 to 10 where 0 is no effect and 10 is complete control
# [4] = Preemergence, Rate 125 g/ha, scale of 0 to 10 where 0 is no effect and 10 is complete control
# [5] = Preemergence, Rate 250 g/ha, scale 0 to 10 (0 no effect, 10 complete control)
# [6] = Preemergence, Rate 500 g/ha, scale of 0 to 10 where 0 is no effect and 10 is complete control
# [7] = Postemergence, Rate 500 g/ha, scale of 0 to 10 where 0 is no effect and 10 is complete control
# [8] = Postemergence, Rate 250 g/ha, scale of 0 to 10, 0 is no effect, 10 is complete control
# [9] = Rate 62 g/ha, flood test species, Pre-emergence, visual evaluation after twelve to sixteen days
# [10] = Rate 125 g/ha, under heading Pre-emergence, flood test species, visual evaluation after twelve to sixteen days
# [11] = Rate 250 g/ha, Pre-emergence (flood test species), scale 0 to 10, 0 is no effect, 10 is complete control
# [12] = Rate 500 g/ha, Pre-emergence section of Table B, 0 to 10 scale (0 no effect, 10 complete control)
compound,measurement,setting,value
CC(C)N(C(=O)n1oc(=O)n(CCCC#N)c1=O)c1ccc(F)cc1 [Compound 647],"Plant response rating, Sugarbeets",sugar beet; [1],1
same,Sugarbeets plant response rating,sugar beet; [2],2
same,Sugarbeets plant response rating,sugar beet; [3],7
same,Sugarbeets plant response rating,sugar beet; [4],8
same,"Plant response rating, Sugarbeets",sugar beet; [5],8
same,"Plant response rating, Sugarbeets",sugar beet; [6],8
same,"Plant response rating, Rape",rape; [1],0
same,Rape plant response rating,rape; [2],0
same,"Plant response rating, Rape",rape; [7],7
same,Rape plant response rating,rape; [3],5
same,Rape plant response rating,rape; [4],8
same,"Plant response rating, Rape",rape; [5],10
same,"Plant response rating, Rape",rape; [6],10
same,"Plant response rating, Blackgrass",blackgrass; [1],6
same,Blackgrass plant response rating,blackgrass; [8],7
same,"Plant response rating, Blackgrass",blackgrass; [7],8
same,Blackgrass plant response rating,blackgrass; [3],7
same,Blackgrass plant response rating,blackgrass; [4],9
same,"Plant response rating, Blackgrass",blackgrass; [5],10
same,"Plant response rating, Blackgrass",blackgrass; [6],10
same,"Plant response rating, S. Flatsedge (0 to 10 scale, 0 is no effect, 10 is complete control)",smallflower flatsedge; [9],0
same,"S. Flatsedge plant response rating (0 to 10 scale, 0 is no effect, 10 is complete control)",smallflower flatsedge; [10],0
same,S. Flatsedge plant response rating,smallflower flatsedge; [11],0
same,S. Flatsedge plant response rating,smallflower flatsedge; [12],0
same,"Plant response rating, Nutsedge",purple nutsedge; [1],0
same,Nutsedge plant response rating,purple nutsedge; [2],0
same,"Plant response rating, Nutsedge",purple nutsedge; [7],6
same,Nutsedge plant response rating,purple nutsedge; [3],0
same,Nutsedge plant response rating,purple nutsedge; [4],0
same,"Plant response rating, Cocklebur",cocklebur; [1],0
same,Cocklebur plant response rating,cocklebur; [2],0
same,Cocklebur plant response rating,cocklebur; [8],4
same,"Plant response rating, Cocklebur",cocklebur; [7],4
same,Cocklebur plant response rating,cocklebur; [3],0
same,Cocklebur plant response rating,cocklebur; [4],0
same,"Plant response rating, Cocklebur",cocklebur; [5],1
same,"Plant response rating, Cocklebur",cocklebur; [6],7
same,"Plant response rating, Soybean",soybean; [1],2
same,Soybean plant response rating,soybean; [2],3
same,Soybean plant response rating,soybean; [3],0
same,Soybean plant response rating,soybean; [4],0
same,"Plant response rating, Soybean",soybean; [5],1
same,"Plant response rating, Soybean",soybean; [6],1
same,"Plant response rating, Ducksalad (0 to 10 scale, 0 is no effect, 10 is complete control)",duck salad; [9],0
same,"Ducksalad plant response rating (0 to 10 scale, 0 is no effect, 10 is complete control)",duck salad; [10],0
same,Ducksalad plant response rating,duck salad; [11],0
same,Ducksalad plant response rating,duck salad; [12],0
same,"Plant response rating, Corn",corn; [1],0
same,Corn plant response rating,corn; [2],2
same,Corn plant response rating,corn; [8],5
same,"Plant response rating, Corn",corn; [7],6
same,Corn plant response rating,corn; [3],0
same,Corn plant response rating,corn; [4],3
same,"Plant response rating, Corn",corn; [5],5
same,"Plant response rating, Corn",corn; [6],10
same,"Plant response rating, Velvetleaf",velvetleaf; [1],5
same,Velvetleaf plant response rating,velvetleaf; [2],5
same,Velvetleaf plant response rating,velvetleaf; [3],6
same,Velvetleaf plant response rating,velvetleaf; [4],8
same,"Plant response rating, Velvetleaf",velvetleaf; [5],8
same,"Plant response rating, Velvetleaf",velvetleaf; [6],9
same,"Plant response rating, Wild oats",wild oat; [1],0
same,Wild oats plant response rating,wild oat; [2],0
same,Wild oats plant response rating,wild oat; [3],5
same,Wild oats plant response rating,wild oat; [4],8
same,"Plant response rating, Wild oats",wild oat; [5],9
same,"Plant response rating, Wild oats",wild oat; [6],10
same,"Plant response rating, Redroot pigweed",pigweed; [1],0
same,Redroot pigweed plant response rating,pigweed; [2],4
same,Redroot pigweed plant response rating,pigweed; [3],10
same,Redroot pigweed plant response rating,pigweed; [4],10
same,"Plant response rating, Redroot pigweed",pigweed; [5],10
same,"Plant response rating, Redroot pigweed",pigweed; [6],10
same,"Plant response rating, Crabgrass",crabgrass; [1],7
same,Crabgrass plant response rating,crabgrass; [2],9
same,Crabgrass plant response rating,crabgrass; [8],9
same,"Plant response rating, Crabgrass",crabgrass; [7],9
same,Crabgrass plant response rating,crabgrass; [3],8
same,Crabgrass plant response rating,crabgrass; [4],8
same,"Plant response rating, Crabgrass",crabgrass; [5],9
same,"Plant response rating, Crabgrass",crabgrass; [6],9
same,"Plant response rating, Barnyardgrass (0 to 10 scale, 0 is no effect, 10 is complete control)",bamyardgrass; [9],0
same,"Barnyardgrass plant response rating (0 to 10 scale, 0 is no effect, 10 is complete control)",bamyardgrass; [10],0
same,Barnyardgrass plant response rating,bamyardgrass; [11],0
same,Barnyardgrass plant response rating,bamyardgrass; [12],0
same,"Plant response rating, Bedstraw",bedstraw,0
same,"Plant response rating, Wheat",wheat; [1],0
same,Wheat plant response rating,wheat; [2],3
same,Wheat plant response rating,wheat; [3],1
same,Wheat plant response rating,wheat; [4],6
same,"Plant response rating, Wheat",wheat; [5],8
same,"Plant response rating, Wheat",wheat; [6],8
same,"Plant response rating, B. signalgrass",surinam grass; [1],4
same,"Plant response rating, B. signalgrass",surinam grass; [2],6
same,B. signalgrass plant response rating,surinam grass; [8],7
same,"Plant response rating, B. signalgrass",surinam grass; [7],8
same,B. signalgrass plant response rating,surinam grass; [3],3
same,B. signalgrass plant response rating,surinam grass; [4],7
same,"Plant response rating, B. signalgrass",surinam grass; [5],9
same,"Plant response rating, B. signalgrass",surinam grass; [6],10
same,"Plant response rating, Rice (0 to 10 scale, 0 is no effect, 10 is complete control)",rice; [9],0
same,"Rice plant response rating (0 to 10 scale, 0 is no effect, 10 is complete control)",rice; [10],0
same,Rice plant response rating,rice; [11],0
same,Rice plant response rating,rice; [12],0
same,"Plant response rating, Giant foxtail",giant foxtail; [1],8
same,Giant foxtail plant response rating,giant foxtail; [2],9
same,Giant foxtail plant response rating,giant foxtail; [8],9
same,"Plant response rating, Giant foxtail",giant foxtail; [7],9
same,Giant foxtail plant response rating,giant foxtail; [3],9
same,Giant foxtail plant response rating,giant foxtail; [4],10
same,"Plant response rating, Giant foxtail",giant foxtail; [5],10
same,"Plant response rating, Giant foxtail",giant foxtail; [6],10
same,"Plant response rating, Morningglory",morningglory; [1],0
same,Morningglory plant response rating,morningglory; [2],0
same,Morningglory plant response rating,morningglory; [8],2
same,"Plant response rating, Morningglory",morningglory; [7],6
same,Morningglory plant response rating,morningglory; [3],0
same,Morningglory plant response rating,morningglory; [4],0
same,"Plant response rating, Morningglory",morningglory; [5],7
same,"Plant response rating, Morningglory",morningglory; [6],7
